Laboratory results: ChEMBL document CHEMBL1201862, “PubChem BioAssay data set” (2004)
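Method: 48-hour compound exposure of cells in 96-well plates, five concentrations, linear interpolation of endpoints. At the GI50, growth is halved.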 Active and inactive are the calls of the source. No stated cut-off is given here; in the data, active = GI50 up to about 1.1 µM and inactive = higher.

Assays:
Assay in all cases: NCI anticancer screen, dose series, 48 h
786-0 = tested on: 786-0
A549 = tested on: A549
BT-549 = tested on: BT-549
COLO 205 = tested on: COLO 205
HCT-116 = tested on: HCT-116
HCT-15 = tested on: HCT-15
HL-60 = tested on: HL-60
KM-20L2 = tested on: KM-20L2
KM12 = tested on: KM12
M14 = tested on: M14
MCF7 = tested on: MCF7
MDA-MB-435 = tested on: MDA-MB-435
Malme-3M = tested on: Malme-3M
SF-295 = tested on: SF-295
SK-MEL-5 = tested on: SK-MEL-5
SNB-75 = tested on: SNB-75
SR = tested on: SR
TK-10 = tested on: TK-10
U-251 = tested on: U-251
UACC-257 = tested on: UACC-257

SMILES	GI50 (786-0)	GI50 (A549)	GI50 (BT-549)	GI50 (COLO 205)	GI50 (HCT-116)	GI50 (HCT-15)	GI50 (HL-60)	GI50 (KM-20L2)	GI50 (KM12)	GI50 (M14)	GI50 (MCF7)	GI50 (MDA-MB-435)	GI50 (Malme-3M)	GI50 (SF-295)	GI50 (SK-MEL-5)	GI50 (SNB-75)	GI50 (SR)	GI50 (TK-10)	GI50 (U-251)	GI50 (UACC-257)
CCOC(=O)N[C@H]1CCc2cc(OC)c(OC)c(OC)c2-c2ccc(SC)c(=O)cc21	< 10 nM (active)	< 10 nM (active)	< 10 nM (active)	< 10 nM (active)	< 10 nM (active)	< 10 nM	< 10 nM (active)	< 10 nM (active)	< 10 nM (active)	< 10 nM (active)	< 10 nM (active)	< 10 nM (active)	< 10 nM (active)	< 10 nM (active)	< 10 nM (active)	< 43.4 nM (active)	< 10 nM (active)	1000 nM (active)	< 10 nM (active)	16600 nM (inactive)
NC(CS)C(=O)NCCNc1ccc(NCCNC(=O)C(N)CS)c2c1C(=O)c1c(O)ccc(O)c1C2=O (stereo not given)	6.62 nM (active)	2.51 nM (active)	327 nM (active)	422 nM (active)	39.1 nM (active)	112 nM	1.75 nM (active)	61.8 nM (active)	135 nM (active)	24.8 nM (active)	4.02 nM (active)	483 nM (active)	65.3 nM (active)	7.82 nM (active)	94.8 nM (active)	23.6 nM (active)	< 1 nM (active)	667 nM (active)	5.79 nM (active)	857 nM (active)
O=P1(NCCCl)OCCCN1CCCl (stereo not given) [IFOSFAMIDE]	> 428000 nM (inactive)	401000 nM (inactive)	> 500000 nM (inactive)	394000 nM (inactive)	401000 nM (inactive)	376000 nM	320000 nM (inactive)	385000 nM (inactive)	406000 nM (inactive)	> 467000 nM (inactive)	361000 nM (inactive)	> 500000 nM (inactive)	330000 nM (inactive)	374000 nM (inactive)	398000 nM (inactive)	334000 nM (inactive)	> 500000 nM (inactive)	> 471000 nM (inactive)	310000 nM (inactive)	345000 nM (inactive)
